This is an account of results in publication PMC3539767 (Bioorganic & medicinal chemistry letters, 2012).

One series concerns the target rat mGlu5 (Rattus norvegicus, UniProt P31424). As to the kind of experiment: calcium mobilization PAM assay, high-expressing rat mGlu5 HTS cell line. The class given is cell-based. Particulars: for mGlu5 PAM activity: rat mGlu5, high expressing rat cell line; for allosteric agonist activity: rat mGlu5 (ago-PAM); for % Glu Max (rmGlu5): rat mGlu5 cell line. In general terms: Calcium assays in cells follow changes in intracellular calcium, usually with a dye or a luminescent sensor.

A further series concerns the target mGlu5 MPEP site (Rattus norvegicus, UniProt P31424). The series is described as follows: [3H]-methoxyPEPy radioligand displacement. The class given is binding.
For another series, the target named is human mGlu5 (Homo sapiens, UniProt P41594). As to the kind of experiment: PAM assay in lower expressing human mGlu5 cell line. The series is classed as cell-based.
Sequence of human mGlu5 (P41594 21-1212): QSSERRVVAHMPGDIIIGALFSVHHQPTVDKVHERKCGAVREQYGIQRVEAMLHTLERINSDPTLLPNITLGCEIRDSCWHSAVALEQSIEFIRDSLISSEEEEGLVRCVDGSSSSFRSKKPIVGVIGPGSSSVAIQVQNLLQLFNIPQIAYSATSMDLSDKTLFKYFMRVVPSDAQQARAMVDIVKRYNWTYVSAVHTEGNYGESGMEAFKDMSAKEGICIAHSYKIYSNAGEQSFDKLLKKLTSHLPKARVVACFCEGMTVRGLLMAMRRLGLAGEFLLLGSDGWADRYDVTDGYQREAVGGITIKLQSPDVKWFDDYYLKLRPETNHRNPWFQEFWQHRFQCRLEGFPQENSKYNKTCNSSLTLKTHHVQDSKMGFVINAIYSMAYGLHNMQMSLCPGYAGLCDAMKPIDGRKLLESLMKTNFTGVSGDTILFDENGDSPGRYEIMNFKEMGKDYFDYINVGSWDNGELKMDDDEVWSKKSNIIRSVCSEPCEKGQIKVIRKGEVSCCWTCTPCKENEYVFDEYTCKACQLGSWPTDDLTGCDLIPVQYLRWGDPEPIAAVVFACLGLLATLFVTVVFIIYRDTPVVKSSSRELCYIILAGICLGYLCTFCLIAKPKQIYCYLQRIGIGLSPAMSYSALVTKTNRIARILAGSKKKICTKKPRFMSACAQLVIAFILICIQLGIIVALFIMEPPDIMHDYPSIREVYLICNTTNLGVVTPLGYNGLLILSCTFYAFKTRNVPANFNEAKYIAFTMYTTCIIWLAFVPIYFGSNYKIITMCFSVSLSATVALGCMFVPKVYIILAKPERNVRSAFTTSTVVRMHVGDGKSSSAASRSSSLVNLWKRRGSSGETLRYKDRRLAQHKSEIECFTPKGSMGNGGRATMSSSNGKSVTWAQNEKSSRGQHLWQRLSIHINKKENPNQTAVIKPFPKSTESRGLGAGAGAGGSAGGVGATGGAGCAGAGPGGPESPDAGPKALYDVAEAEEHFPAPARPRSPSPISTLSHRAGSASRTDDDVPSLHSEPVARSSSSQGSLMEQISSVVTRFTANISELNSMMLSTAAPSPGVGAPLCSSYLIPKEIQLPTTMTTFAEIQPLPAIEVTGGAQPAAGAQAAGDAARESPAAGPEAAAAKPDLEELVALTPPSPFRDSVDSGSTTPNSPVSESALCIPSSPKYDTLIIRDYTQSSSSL
A short description of series [1]: rat plasma protein binding. The class given is in vitro ADME.
The next series concerns Ca. As to the kind of experiment: cardiovascular safety ion channel panel, Ca. The series is classed as biochemical. Particulars: read-out: IC50 Ca; functional activity.
Series [2] has as its system 68 GPCRs, ion channels and transporters. As to the kind of experiment: Ricerca radioligand binding panel. Particulars: at 10 μM; 68 targets.
Series [3] is described as follows: human plasma protein binding. The class given is in vitro ADME.
The subject of a further series is Na. The series is described as follows: cardiovascular safety ion channel panel, Na. The class given is biochemical. The following applies: read-out: IC50 Na; functional activity.
Setting [4] is: membranes isolated from rmGlu5, up to 30 μM compound.

A value given as a limit tells only on which side of the number the result lay.

Sequence of mGlu5 MPEP site (P31424 21-1203): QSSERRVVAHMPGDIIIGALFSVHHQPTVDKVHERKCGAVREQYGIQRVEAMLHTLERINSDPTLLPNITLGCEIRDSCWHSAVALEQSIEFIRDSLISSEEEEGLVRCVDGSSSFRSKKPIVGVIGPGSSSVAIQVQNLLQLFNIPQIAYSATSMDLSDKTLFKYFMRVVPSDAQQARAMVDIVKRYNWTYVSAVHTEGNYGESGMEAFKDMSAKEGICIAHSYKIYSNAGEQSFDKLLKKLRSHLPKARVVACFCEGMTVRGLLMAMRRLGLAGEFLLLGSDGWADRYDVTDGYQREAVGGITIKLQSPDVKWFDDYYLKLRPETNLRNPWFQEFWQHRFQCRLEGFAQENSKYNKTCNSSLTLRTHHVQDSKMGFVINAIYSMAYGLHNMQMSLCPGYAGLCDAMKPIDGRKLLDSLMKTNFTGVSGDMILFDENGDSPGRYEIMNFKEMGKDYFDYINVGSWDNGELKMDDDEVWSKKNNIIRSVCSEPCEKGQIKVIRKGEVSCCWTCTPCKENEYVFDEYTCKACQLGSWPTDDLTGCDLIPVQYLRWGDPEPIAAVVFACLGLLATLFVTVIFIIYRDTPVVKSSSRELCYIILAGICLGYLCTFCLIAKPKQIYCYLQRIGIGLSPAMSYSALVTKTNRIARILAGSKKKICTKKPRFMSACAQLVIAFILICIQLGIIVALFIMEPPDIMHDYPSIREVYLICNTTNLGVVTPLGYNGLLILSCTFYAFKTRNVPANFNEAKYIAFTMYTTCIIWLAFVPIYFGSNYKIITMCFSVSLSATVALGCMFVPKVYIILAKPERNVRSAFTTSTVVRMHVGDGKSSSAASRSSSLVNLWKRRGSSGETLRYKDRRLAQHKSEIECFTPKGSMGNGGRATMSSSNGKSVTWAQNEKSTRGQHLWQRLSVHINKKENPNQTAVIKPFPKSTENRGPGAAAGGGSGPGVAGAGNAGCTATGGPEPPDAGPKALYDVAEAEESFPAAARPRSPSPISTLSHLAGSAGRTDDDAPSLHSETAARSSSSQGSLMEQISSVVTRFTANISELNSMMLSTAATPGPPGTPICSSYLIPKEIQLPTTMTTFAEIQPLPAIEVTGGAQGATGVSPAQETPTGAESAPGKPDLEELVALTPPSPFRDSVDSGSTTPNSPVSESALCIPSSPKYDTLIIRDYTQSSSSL
Sequence of rat mGlu5 (P31424 21-1203): as above

For `O=S(=O)(c1ccc(C#Cc2cccc(F)c2)cc1)N1CCOCC1` [compound 25], the “mGlu5 PAM activity” value on rat mGlu5 is given as “weak to moderately active PAMs”. The “displacement of [3H]-methoxyPEPy” value on mGlu5 MPEP site (setting [4]) is on record as “no displacement”.

As a reminder, the EC50 is the concentration that produces a half-maximal response. In the case of `CS(=O)(=O)N(CC(=O)Nc1cccc(Cl)c1)c1ccccc1Cl` [compound 9], the “% Glu Max (hmGlU5)” value at human mGlu5 came out at 63 % Glu Max. Besides, at rat mGlu5, the EC50 amounted to 0.098 µM, the allosteric agonist activity result is “strong allosteric agonist activity” and the “% Glu Max (rmGlu5)” value stood at 74 % Glu Max. The fold shift at rat mGlu5 (rat mGlu5, value for 15a estimated because of agonist activity) was 7.9 fold.

On to `O=S(=O)(c1ccc(F)cc1)N1CCC[C@H](c2nc(-c3ccc(F)cc3)no2)C1` [compound 26], for which the “mGlu5 PAM activity” value at human mGlu5 is listed as “weak PAM”; on rat mGlu5 it was “weak to moderately active PAMs”. The “displacement of [3H]-methoxyPEPy” value at mGlu5 MPEP site (setting [4]) is on record as “no displacement”.

As to `CS(=O)(=O)N(CC(=O)Nc1ccccc1)c1ccccc1Cl` [15a], the “% Glu Max (hmGlU5)” value on human mGlu5 is 77 % Glu Max. In addition, on rat mGlu5, the allosteric agonist activity entry was “strong allosteric agonist activity” and the “% Glu Max (rmGlu5)” value stood at 61 % Glu Max.

As to `CS(=O)(=O)N(CC(=O)Nc1ccc(F)cn1)c1ccccc1Cl` [15b], the “% Glu Max (rmGlu5)” value at rat mGlu5 came out at 66 % Glu Max.

As usually defined, the IC50 is the midpoint of a concentration-inhibition curve. Take `CS(=O)(=O)N(CC(=O)NCC1CC1)c1cc(C(F)(F)F)ccc1Cl` [compound 24]: the “plasma protein binding” value in series [1] and in series [3] was “significantly reduced” throughout. For the same molecule, the IC50 in the series with Ca and in the series on Na was more than 10 µM in each case. Besides, the “mGlu5 PAM activity” value on human mGlu5 and on rat mGlu5 was “moderately potent” each time. In series [2], the “inhibition in Ricerca radioligand binding panel” value is reported as less than 50 % inhibition. Besides, the “displacement of [3H]-methoxyPEPy” value on mGlu5 MPEP site (in words) is “did not displace”.

For the molecule `CS(=O)(=O)N(CC(=O)Nc1cccnc1F)c1ccccc1Cl` [15c], the “% Glu Max (hmGlU5)” value on human mGlu5 worked out at 42 % Glu Max. The “% Glu Max (rmGlu5)” value at rat mGlu5 is listed as 64 % Glu Max.
